# Experimental data from patent US20260373176A1, “Compounds Targeting KRAS G12D Mutations and Their Uses” (InnoPharmaScreen Inc., priority 2023, published 2026).
# “Also recorded” adds a separate entry of the source.
# Assays:
# CRBN-KRAS G12D = molecular target: T1, CRBN-KRAS G12D (Homo sapiens, UniProt P01116+Q96SW2, G12D); assay: SPR ternary complex formation assay of CRBN-KRAS G12D-MG (1:1 Langmuir binding model)
# T1 construct: His-tag (for the complex); purchased Abcam (KRAS G12D); R&D systems (CUL4A/RBX1/DDB1/CRBN complex) ab268712; E3-650
# Method: (§1) CaCo-2 (ATTC), H1975 (CRL-5908) and LS-180 (CCL-187) cells were obtained from ATCC, expanded immediately, and frozen down. Vials were thawed and used within 20 passages. SNU-407, SNU-1033 and SK-LU-1 cells were obtained from Korean Cell Line Bank, expanded immediately, and frozen down. Vials were thawed and used within 20 passages. Caco-2 cells were cultured in MEM (Welgene, LM007-07) supplemented with 10% FBS GenDEPOT; cat. no. F0900-050) and 1% Antibiotic Antimycotic solution (Welgene; cat. No. LS203-01). H1975, SNU-407, SNU-1033 cells were cultured in RPMI (Welgene, LM011-03) supplemented with 10% FBS GenDEPOT; cat. no. F0900-050) and 1% Antibiotic Antimycotic solution (Welgene; cat. No. LS203-01). SK-LU-1 and LS-180 cells were cultured in DMEM (Welgene, LM001-05) supplemented with 10% FBS GenDEPOT; cat. no. F0900-050) and 1% Antibiotic Antimycotic solution (Welgene; cat. No. LS203-01). PBS (Welgene; cat. no. LB004-02) was used to wash cells and 0.25% Trypsin-EDTA (Welgene; cat. no. LS015-01) was used to detach cells for passaging. KRAS Mouse Monoclonal Antibody was purchased from Origene (cat. no. TA801672), anti-3-actin was purchased from AB Frontier (cat. no. LF-MA20055). […]
# The injection was performed at a flow rate and for a contact time according to the Korea University Stem cell Lab guidelines. […] The sensorgrams were recorded using the embedded software imSPR-mini v 1.1.0. […]
# KRAS WT = molecular target: T2, KRAS WT (Homo sapiens, UniProt P01116+Q96SW2); assay: Western blot analysis of KRAS WT degradation in Caco-2 cells; type: cell-based
# T2 construct: molecular glue degradation via endogenous CRBN, western blot
# Method: as §1, with “LS203-01).” for “LS203-01). PBS (Welgene; cat. no. LB004-02) was used to wash cells and 0.25% Trypsin-EDTA (Welgene; cat. no. LS015-01) was used to detach cells for passaging. KRAS Mouse Monoclonal Antibody was purchased from Origene (cat. no. TA801672), anti-3-actin was purchased from AB Frontier (cat. no. LF-MA20055).”
# 2.0×10^5 cells were seeded into 6-well plates (SPL; cat. no. 30006). […] Protein concentration of the supernatant was measured using a BCA reagent. […] Detection of bound antibodies was carried out using ECL reagents (KwikQuant #R1004) and bands were detected by ATTO Luminograph III Lite. The intensity of the KRAS band was quantified using ImageJ software and normalized to the intensity of GAPDH band.
# [1] = test system: AsPC-1 pancreatic cancer cells; assay: In vivo tumor growth, AsPC-1 xenograft mice; set-up: species or system mouse (BALB/c nu/nu nude mice)
# Method: We have conducted the in vivo tumor growth assay using AsPC-1 pancreatic cancer cell-implanted xenograft animals by requesting Eins solution (Gwanggyo, Korea).
# Experimental procedures that involved animals and their care were conducted in compliance with the Guide for the Care and Use of Laboratory Animals15 and ARRIVE guidelines. Animal experiments were approved by Animal Care and Use Committee of Woojung center for phenogenomics (Hwasung, Korea) and conducted at WoojungBio Inc. (Hwasung, Korea) in accordance with the guidelines. BA LB/C (nu/nu) nude mice of both genders aged 6 weeks and weighing 16-22 g were purchased from Nara biotech Co, Ltd. (Seoul, Korea). The mice were housed in a pathogen-free environment at a temperature of 25 °C and relative air humidity between 45 and 50%. All surgeries were performed in a sterile environment. To establish subcutaneous […] tumors, 1×10^6 AsPC-1 cells/100 μL were subcutaneously injected into the left groin region of BALB/nu nu male mice (7 weeks old; Nara Biotech Inc., Seoul, Korea). Immediately before treatment, IPS-06061 was dissolved in DMSO and then diluted tenfold in normal saline. Tumor-baring mice in vehicle control, IPS-06061 (low), and IPS-06061 (high) groups were injected intravenously with vehicle (1:10 DMSO to saline, v/v), 30 mg/kg IPS-06061 solution, or 80 mg/kg IPS-06061 solution, respectively, twice a week for 28 days (n=10 mice per major group) (FIG. 11). Tumor growth rate was recorded on day 7, 14, 21, and 28 by measuring the major and minor axes with a digital caliper. Measurements were transformed into tumor volumes using the formula tumor volume (mm^3)=major axis×minor axis^2×0.5. Tumor, liver, and kidneys were collected from major groups on day 28 within 3 h of the last injection and weighed. The tumors were subsequently frozen in liquid nitrogen and stored at −80 °C until homogenization for western blotting.
# To confirm the anti-tumor effect of IPS-06061, we employed a xenograft mouse model implanting AsPC-1 pancreatic cancer cells. After the tumor volume had grown to approximately 100 mm^3, IPS-06061 was administered […] twice a week for 28 days. […] Toxicity was assessed by measuring body weight, food intake, complete blood cell count, and biochemical blood chemistry.
# KRAS G12D [2] = assay: KRAS G12D degradation in AsPC-1 xenograft mice; type: in vivo, mouse (BALB/c nu/nu nude mice); details: 80 mpk BiW, oral; at 28 days after treatment
# [3] = Toxicity in AsPC-1 xenograft mice (body weight, food intake, blood count, blood chemistry); type: in vivo, mouse (BALB/c nu/nu nude mice)
# Method: Experimental procedures that involved animals and their care were conducted in compliance with the Guide for the Care and Use of Laboratory Animals15 and ARRIVE guidelines. Animal experiments were approved by Animal Care and Use Committee of Woojung center for phenogenomics (Hwasung, Korea) and conducted at WoojungBio Inc. (Hwasung, Korea) in accordance with the guidelines. BA LB/C (nu/nu) nude mice of both genders aged 6 weeks and weighing 16-22 g were purchased from Nara biotech Co, Ltd. (Seoul, Korea). The mice were housed in a pathogen-free environment at a temperature of 25 °C and relative air humidity between 45 and 50%. All surgeries were performed in a sterile environment. To establish subcutaneous […] tumors, 1×10^6 AsPC-1 cells/100 μL were subcutaneously injected into the left groin region of BALB/nu nu male mice (7 weeks old; Nara Biotech Inc., Seoul, Korea). Immediately before treatment, IPS-06061 was dissolved in DMSO and then diluted tenfold in normal saline. […] Tumor growth rate was recorded on day 7, 14, 21, and 28 by measuring the major and minor axes with a digital caliper. […]
# To confirm the anti-tumor effect of IPS-06061, we employed a xenograft mouse model implanting AsPC-1 pancreatic cancer cells. […] Toxicity was assessed by measuring body weight, food intake, complete blood cell count, and biochemical blood chemistry.
# KRAS G12D [4] = molecular target: T3, KRAS G12D (Homo sapiens, UniProt P01116+Q96SW2, G12D); assay: Western blot analysis of KRAS G12D degradation in cells; type: cell-based; set-up: degradation by molecular glue via endogenous CRBN, western blot
# Method: 2.0×10^5 cells were seeded into 6-well plates (SPL; cat. no. 30006). The next day, media was removed, and cells were treated with 0, 1, 5, 10, 50, 100 μM KRAS-MG in serum free media. For 24 h, 48 h, and 72 h. Cells were lysed using a RIPA buffer and clarified at 21,000×g for 15 min at 4 °C. Protein concentration of the supernatant was measured using a BCA reagent. (Thermofisher; cat. no. 23225) incubated at 37 °C for 30 mins. For each sample, equal amounts of protein were denatured and fractionated by Novex Wedge Well 4-20% Tris-Glycine Mini Gels (Invitrogen cat. no. XP04205BOX), and then transferred onto a Immobilon-PVDF Membrane membranes (Merck, cat. no. IPVH00010) at 80 V for 1 h at 4 °C. Membranes were blocked by placing them in a 5% BSA in Tris-buffered saline with Tween-20 (TBST; 20 mM Tris, 150 mM NaCl, 0.1% Tween-20) for 1 h. Membranes were then incubated overnight at 4 °C with primary antibodies against KRAS (1:1000, invitrogen: #703345), GAPDH (1:2000, Cell signaling #2118). After three washes with TBST, membranes were incubated with the appropriate HRP-conjugated secondary antibodies (1:1000, KwikQuant #R1006) for 1 hour RT. After three washing. Detection of bound antibodies was carried out using ECL reagents (KwikQuant #R1004) and bands were detected by ATTO Luminograph III Lite. The intensity of the KRAS band was quantified using ImageJ software and normalized to the intensity of GAPDH band.
# KRAS G12D [5] = molecular target: T3, KRAS G12D; assay: IPS-Chip PPIExplorer solid-phase cell-free ubiquitination of KRAS G12D using CRBN; type: biochemical; set-up: His-tagged CUL4A/RBX1/DDB1/CRBN E3; UBE1 (E1) and UbcH5a/UBE2D1 (E2) as helper enzymes; details: in the presence of CRBN, E1, E2, ubiquitin and ATP
# Method: as §1, with “passaging.” for “passaging. KRAS Mouse Monoclonal Antibody was purchased from Origene (cat. no. TA801672), anti-3-actin was purchased from AB Frontier (cat. no. LF-MA20055).”
# The 0.2 mg/ml 6× His tag monoclonal antibody was diluted in 30% glycerol in 1×PBS, pH 7.4, was spotted onto the IPS-Chip for 16 h at 4 °C. […] To detect polyubiquitination signals, the chip was scanned using a GenePix Pro 6.0 (Axon Instruments, CA, USA), and the data analyzed with an Origin 6.1 (Originlab, MA, USA).
# KRAS = details: PROTAC recruiting CRBN; cited from earlier work
selectivity for KRAS G12D over KRAS WT (CRBN-KRAS G12D; KRAS G12D vs KRAS WT),"Dmax (KRAS G12D [4]; ASPC1, KRAS G12D degradation, AsPC-1 cells)","DC50 (KRAS G12D [4]; KRAS G12D degradation, AsPC-1 cells)",Compound,ternary complex formation / binding to KRAS G12D (CRBN-KRAS G12D; CRBN + KRAS G12D),effect on degradation of KRAS WT (KRAS WT),"TGI ([1]; 80 mpk BiW, oral, AsPC-1 xenograft mice)",anti-cancer activity ([1]; AsPC-1 xenograft mice),"mean tumor growth vs vehicle ([1]; high dose 80 mpk, oral, twice a week for 28 days)","tumor weight ([1]; oral, twice a week for 28 days)",Maximum degradation (KRAS G12D [2]),"body weight effect ([3]; AsPC-1 xenograft mice, twice a week, 28 days)","decreases in weight and food intake ([3]; oral, twice a week for 28 days, vs vehicle group)","degradation of KRAS G12D (KRAS G12D [4]; western blot, AsPC-1 pancreatic cancer cells)",ubiquitination of KRAS G12D (KRAS G12D [5]),poly-ubiquitination and degradation of KRAS (KRAS)
High selective for KRAS G12D,> 90%,< 500 nM,"CCOC(=O)[C@H](CCc1ccccc1)N[C@@H](C)C(=O)c1ccccc1 [IPS-06061, ethyl (2S)-2-((1-oxo-1-phenylpropan-2-yl)amino)-4-phenylbutanoate]","binds specifically to KRAS G12D, forming a ternary complex",no effect on the degradation of KRAS WT; also recorded: without affecting KRAS Wild Type,~ 100%,strong anti-cancer activity,remarkably reduced,significantly reduced tumor weight,> 75%,No body weight effect,such differences were not noted,Time-dependent degradation of KRAS G12D; also recorded: degrades KRAS G12D mutant,promoted the ubiquitination of KRAS G12D in a dose-dependent manner,–
–,–,–,C=C(F)C(=O)N1CCN(c2nc(OC[C@@H]3CCCN3CCCOCCC(=O)N[C@H](C(=O)N3C[C@H](O)C[C@H]3C(=O)NCc3ccc(-c4scnc4C)cc3)C(C)(C)C)nc3c2CCN(c2cccc4cccc(Cl)c24)C3)C[C@@H]1CC#N [LC2],–,–,–,–,–,–,–,–,–,–,–,"poly-ubiquitination of KRAS, thus proteosome-mediated degradation of the protein"
